Molecular target: HPK1 (MAP4K1) (Homo sapiens, UniProt Q92918)
Assay: FRET Assay for HPK1 (MAP4K1): one step binding assay, displacement of labeled tracer
Settings: for inhibition at 1 µM: 1 μM compound; for inhibition at 1 µM / inhibition at 10 µM: FRET ratio 665/620, percent of control; for inhibition at 10 µM: 10 μM compound; for IC50: dose response curve, nonlinear regression
How it was run: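 TR-FRET tracer-displacement binding assay. GST-tagged HPK1 (10 nM) and Eu-anti-GST antibody (4 nM) were pre-incubated with compound on ice for 15 min in 50 mM HEPES pH 7.5, 10 mM MgCl2, 1 mM EGTA, 0.01% Brij-35 (3% DMSO final). Kinase Tracer 222 (20 nM) was then added for 1 h at room temperature. IC50 came from nonlinear regression of percent of control; percent inhibition was also given at 1.0 and 10.0 μM.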

Sequence of HPK1 (MAP4K1) (Q92918 whole entry): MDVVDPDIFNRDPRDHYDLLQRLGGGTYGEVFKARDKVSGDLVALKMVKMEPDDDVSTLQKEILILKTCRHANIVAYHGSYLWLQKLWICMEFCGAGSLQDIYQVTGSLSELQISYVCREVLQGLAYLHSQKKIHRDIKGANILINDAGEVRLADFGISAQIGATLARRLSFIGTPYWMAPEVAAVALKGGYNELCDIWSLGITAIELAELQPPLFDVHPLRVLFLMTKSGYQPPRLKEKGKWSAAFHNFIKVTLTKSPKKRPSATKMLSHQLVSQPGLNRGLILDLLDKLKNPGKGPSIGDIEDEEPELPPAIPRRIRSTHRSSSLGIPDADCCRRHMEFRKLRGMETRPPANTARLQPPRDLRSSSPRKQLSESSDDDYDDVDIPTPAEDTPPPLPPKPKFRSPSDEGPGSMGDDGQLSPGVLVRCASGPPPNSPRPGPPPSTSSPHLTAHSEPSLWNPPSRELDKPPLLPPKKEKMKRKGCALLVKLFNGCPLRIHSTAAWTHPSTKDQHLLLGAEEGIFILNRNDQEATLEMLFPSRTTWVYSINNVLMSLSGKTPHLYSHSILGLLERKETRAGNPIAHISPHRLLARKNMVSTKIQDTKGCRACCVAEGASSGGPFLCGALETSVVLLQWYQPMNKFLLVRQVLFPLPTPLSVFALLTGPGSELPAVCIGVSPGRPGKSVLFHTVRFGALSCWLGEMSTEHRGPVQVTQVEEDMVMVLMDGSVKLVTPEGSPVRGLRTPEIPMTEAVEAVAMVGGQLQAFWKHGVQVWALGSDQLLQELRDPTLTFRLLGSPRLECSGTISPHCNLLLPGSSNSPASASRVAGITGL

SMILES	inhibition at 1 µM [%]	inhibition at 10 µM [%]	IC50 [nM]
C/C(Nc1cnn(C)c1)=C1/C(=O)Nc2cnc(-c3cc(C#N)ccc3C)cc21 [Example 187, (Z)-4-Methyl-3-(3-(1-((1-methyl-1H-pyrazol-4-yl)amino)ethylidene)-2-oxo-2,3-dihydro-1H-pyrrolo[2,3-c]pyridin-5-yl)benzonitrile]	66.4	19.6	
C/C(Nc1cc(C)n(CC2CC2)n1)=C1/C(=O)Nc2cnc(-c3cnccc3C)cc21 [Example 189, (Z)-3-(1-((1-(cyclopropylmethyl)-5-methyl-1H-pyrazol-3-yl)amino)ethylidene)-5-(4-methylpyridin-3-yl)-1H-pyrrolo[2,3-c]pyridin-2(3H)-one]	73.5	76.9	< 50
C/C(Nc1cc(C)n(CC[C@@H](C)O)n1)=C1/C(=O)Nc2cnc(-c3cnccc3C)cc21 [Example 190, (R,Z)-3-(1-((1-(3-Hydroxybutyl)-5-methyl-1H-pyrazol-3-yl)amino)ethylidene)-5-(4-methylpyridin-3-yl)-1H-pyrrolo[2,3-c]pyridin-2(3H)-one]	52.4	68.6	> 500
C/C(Nc1cc2n(n1)CCOC2)=C1/C(=O)Nc2cnc(-c3c(C)cccc3F)cc21 [Example 192, (Z)-3-(1-((6,7-Dihydro-4H-pyrazolo[5,1-c][1,4]oxazin-2-yl)amino)ethylidene)-5-(2-fluoro-6-methylphenyl)-1H-pyrrolo[2,3-c]pyridin-2(3H)-one]	62.1	68.3	< 50
C/C(Nc1cc2n(n1)CCOC2)=C1/C(=O)Nc2ccc(-c3cnccc3C)cc21 [Example 193, (Z)-3-(1-((6,7-Dihydro-4H-pyrazolo[5,1-c][1,4]oxazin-2-yl)amino)ethylidene)-5-(4-methylpyridin-3-yl)indolin-2-one]	78.2	74.5	< 50
C/C(Nc1cc(C)n(CC[C@H](C)O)n1)=C1/C(=O)Nc2cnc(-c3cnccc3C)cc21 [Example 195, (S,Z)-3-(1-((1-(3-Hydroxybutyl)-5-methyl-1H-pyrazol-3-yl)amino)ethylidene)-5-(4-methylpyridin-3-yl)-1H-pyrrolo[2,3-c]pyridin-2(3H)-one]	25.1	61.1	
C/C(Nc1ccn(CC[C@H](C)O)n1)=C1/C(=O)Nc2cnc(-c3cnccc3C)cc21 [Example 196, (S,Z)-3-(1-((1-(3-hydroxybutyl)-1H-pyrazol-3-yl)amino)ethylidene)-5-(4-methylpyridin-3-yl)-1H-pyrrolo[2,3-c]pyridin-2(3H)-one]	65	66.3	< 50
C/C(Nc1cc(C)n(C(C)(C)C#N)n1)=C1/C(=O)Nc2cnc(-c3cnccc3C)cc21 [Example 197, (Z)-2-Methyl-2-(5-methyl-3-((1-(5-(4-Methylpyridin-3-yl)-2-oxo-1H-pyrrolo[2,3-c]pyridin-3(2H)-ylidene)ethyl)amino)-1H-pyrazol-1-yl)propanenitrile]	69.8	70.1	< 50
C/C(Nc1cc(C)n(CC(C)(C)O)n1)=C1/C(=O)Nc2cnc(-c3c(C)cccc3F)cc21 [Example 200, (Z)-5-(2-Fluoro-6-methylphenyl)-3-(1-((1-(2-hydroxy-2-methylpropyl)-5-methyl-1H-pyrazol-3-yl)amino)ethylidene)-1H-pyrrolo[2,3-c]pyridin-2(3H)-one]	70.7	71.9	< 50
C/C(Nc1cc(C)n(CC(F)F)n1)=C1/C(=O)Nc2cnc(-c3c(C)cccc3F)cc21 [Example 201, (Z)-3-(1-((1-(2,2-Difluoroethyl)-5-methyl-1H-pyrazol-3-yl)amino)ethylidene)-5-(2-fluoro-6-methylphenyl)-1H-pyrrolo[2,3-c]pyridin-2(3H)-one]	65.7	73.6	< 50
C/C(Nc1cc(C)n(CCC(C)(C)O)n1)=C1/C(=O)Nc2cnc(-c3c(C)cccc3F)cc21 [Example 203, (Z)-5-(2-Fluoro-6-methylphenyl)-3-(1-((1-(3-hydroxy-3-methylbutyl)-5-methyl-1H-pyrazol-3-yl)amino)ethylidene)-1H-pyrrolo[2,3-c]pyridin-2(3H)-one]	67.6	83	< 50
C/C(Nc1cc(C)n(CCC(C)C)n1)=C1/C(=O)Nc2cnc(-c3cnccc3C)cc21 [Example 204, (Z)-3-(1-((1-Isopentyl-5-methyl-1H-pyrazol-3-yl)amino)ethylidene)-5-(4-methylpyridin-3-yl)-1H-pyrrolo[2,3-c]pyridin-2(3H)-one]	72.7	86.1	< 50
C/C(Nc1ncc(C)s1)=C1/C(=O)Nc2cnc(-c3c(C)cccc3F)cc21 [Example 205, (Z)-5-(2-Fluoro-6-methylphenyl)-3-(1-((5-methylthiazol-2-yl)amino)ethylidene)-1H-pyrrolo[2,3-c]pyridin-2(3H)-one]	73.3		< 50
C/C(Nc1cc2n(n1)CC(=O)N(C(C)C)C2)=C1/C(=O)Nc2cnc(-c3c(C)cccc3F)cc21 [Example 206, (Z)-2-((1-(5-(2-Fluoro-6-methylphenyl)-2-oxo-1H-pyrrolo[2,3-c]pyridin-3(2H)-ylidene)ethyl)amino)-5-isopropyl-4,5-dihydropyrazolo[1,5-a]pyrazin-6(7H)-one]	72.4	84.9	< 50
C/C(Nc1cc(C)n(C(C)(C)C#N)n1)=C1/C(=O)Nc2cnc(-c3c(C)cccc3F)cc21 [Example 207, (Z)-2-(3-((1-(5-(2-Fluoro-6-methylphenyl)-2-oxo-1H-pyrrolo[2,3-c]pyridin-3(2H)-ylidene)ethyl)amino)-5-methyl-1H-pyrazol-1-yl)-2-methylpropanenitrile]	73.8		< 50

Other lines, results leading:

inhibition at 1 µM [%]	inhibition at 10 µM [%]	IC50 [nM]	SMILES
71	76	< 50	C/C(Nc1cc(C)n(C[C@@H](C)O)n1)=C1/C(=O)Nc2cnc(-c3cnccc3C)cc21 [Example 188, (R,Z)-3-(1-((1-(2-Hydroxypropyl)-5-methyl 1H-pyrazol-3-yl)amino)ethylidene)-5-(4-methylpyridin-3-yl)-1H-pyrrolo[2,3-c]pyridin-2(3H)-one]
69.6	82.2	< 50	C/C(Nc1cc(C)n(C)n1)=C1/C(=O)Nc2cnc(-c3c(C)cccc3F)cc21 [Example 191, (Z)-3-(1-((1,5-dimethyl-1H-pyrazol-3-yl)amino)ethylidene)-5-(2-fluoro-6-methylphenyl)-1H-pyrrolo[2,3-c]pyridin-2(3H)-one]
68.6	66.6	< 50	C/C(Nc1cc(C)n(C)n1)=C1/C(=O)Nc2ccc(-c3cnccc3C)cc21 [Example 194, (Z)-3-(1-((1,5-Dimethyl-1H-pyrazol-3-yl)amino)ethylidene)-5-(4-methylpyridin-3-yl)indolin-2-one]
73.8	71.1	< 50	C/C(Nc1cc(C)n([C@H](C)C#N)n1)=C1/C(=O)Nc2cnc(-c3cnccc3C)cc21 [Example 198, (R,Z)-2-(5-Methyl-3-((1-(5-(4-methylpyridin-3-yl)-2-oxo-1H-pyrrolo[2,3-c]pyridin-3(2H)-ylidene)ethyl)amino)-1H-pyrazol-1-yl)propanenitrile]
71.7		< 50	C/C(Nc1cc(C)n([C@H](C)C#N)n1)=C1/C(=O)Nc2cnc(-c3c(C)cccc3F)cc21 [Example 199, (R,Z)-2-(3-((1-(5-(2-Fluoro-6-methylphenyl)-2-oxo-1H-pyrrolo[2,3-c]pyridin-3(2H)-ylidene)ethyl)amino)-5-methyl-1H-pyrazol-1-yl)propanenitrile]
75.7	61	< 50	C/C(Nc1cc(C)n(CC(C)C)n1)=C1/C(=O)Nc2cnc(-c3c(C)cccc3F)cc21 [Example 202, (Z)-5-(2-Fluoro-6-methylphenyl)-3-(1-((1-isobutyl-5-methyl-1H-pyrazol-3-yl)amino)ethylidene)-1H-pyrrolo[2,3-c]pyridin-2(3H)-one]
79.7		< 50	C/C(Nc1cc(C)n([C@@H](C)C#N)n1)=C1/C(=O)Nc2cnc(-c3c(C)cccc3F)cc21 [Example 208, (S,Z)-2-(3-((1-(5-(2-Fluoro-6-methylphenyl)-2-oxo-1H-pyrrolo[2,3-c]pyridin-3(2H)-ylidene)ethyl)amino)-5-methyl-1H-pyrazol-1-yl)propanenitrile]
75.7	78.9	< 50	C/C(Nc1cc(C)n(C[C@H](C)O)n1)=C1/C(=O)Nc2cnc(-c3c(C)cccc3F)cc21 [Example 209, (S,Z)-5-(2-Fluoro-6-methylphenyl)-3-(1-((1-(2-hydroxypropyl)-5-methyl-1H-pyrazol-3-yl)amino)ethylidene)-1H-pyrrolo[2,3-c]pyridin-2(3H)-one]
70.8		< 50	C/C(Nc1cc(C)n(C)n1)=C1/C(=O)Nc2cnc(-c3cc(F)ccc3C)cc21 [Example 210, (Z)-3-(1-((1,5-Dimethyl-1H-pyrazol-3-yl)amino)ethylidene)-5-(5-fluoro-2-methylphenyl)-1H-pyrrolo[2,3-c]pyridin-2(3H)-one]
76.9	79.4	< 50	C/C(Nc1cc(C)n(C(C)C)n1)=C1/C(=O)Nc2cnc(-c3cnccc3C)cc21 [Example 211, (Z)-3-(1-((1-Isopropyl-5-methyl-1H-pyrazol-3-yl)amino)ethylidene)-5-(4-methylpyridin-3-yl)-1H-pyrrolo[2,3-c]pyridin-2(3H)-one]
